Columns and labels:
Experiment in all cases: relative viability (nuclei count vs DMSO), 5 days (fraction); higher = more cells survive
NCI-H3122 = test system: NCI-H3122
Outline: (§1)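 Dosing by pin tool came one day after lung cancer cell lines were seeded in 1536-well plates, using either one drug or a fixed anchor-drug dose plus five library-drug doses (not always all listed) in √10 steps. After 5 days, nuclei were counted on 4× images. Relative viability is treated-well nuclei count divided by vehicle-well nuclei count, and values are medians of duplicate plates.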

H3255 = test system: H3255
Outline: as §1

EPLC-272H = test system: EPLC-272H
Outline: as §1

NCI-H441 = test system: NCI-H441
Outline: as §1

NCI-H322M = test system: NCI-H322M
Outline: as §1

NCI-H2170 = test system: NCI-H2170
Outline: as §1

201T = test system: 201T
Outline: as §1

UMC-11 = test system: UMC-11
Outline: as §1

NCI-H647 = test system: NCI-H647
Outline: as §1

NCI-H1650 = test system: NCI-H1650
Outline: as §1

NCI-H1734 = test system: NCI-H1734
Outline: as §1

PC-14 = test system: PC-14
Outline: as §1

NCI-H2023 = test system: NCI-H2023
Outline: as §1

NCI-H1793 = test system: NCI-H1793
Outline: as §1

NCI-H1563 = test system: NCI-H1563
Outline: as §1

COR-L23 = test system: COR-L23
Outline: as §1

HCC-15 = test system: HCC-15
Outline: as §1

SW 900 = test system: SW 900
Outline: as §1

NCI-H520 = test system: NCI-H520
Outline: as §1

LOU-NH91 = test system: LOU-NH91
Outline: as §1

NCI-H2405 = test system: NCI-H2405
Outline: as §1

NCI-H2347 = test system: NCI-H2347
Outline: as §1

COc1cc2nccc(Oc3ccc(NC(=O)Nc4cc(C)on4)c(Cl)c3)c2cc1OC [Tivozanib] + COc1cc2c(Oc3ccc(NC(=O)C4(C(=O)Nc5ccc(F)cc5)CC4)cc3F)ccnc2cc1OCCCN1CCOCC1 [Foretinib] (partner 0.25 µM)
relative viability (NCI-H3122; first compound 0.005 µM): 0.913
relative viability (NCI-H3122; first compound 0.01581 µM): 0.962
relative viability (NCI-H3122; first compound 0.05 µM): 0.92
relative viability (NCI-H3122; first compound 0.1581 µM): 1.05
relative viability (NCI-H3122; first compound 0.5 µM): 0.953
relative viability (H3255; first compound 0.005 µM): 0.831
relative viability (H3255; first compound 0.01581 µM): 0.839
relative viability (H3255; first compound 0.05 µM): 0.907
relative viability (H3255; first compound 0.1581 µM): 0.66
relative viability (H3255; first compound 0.5 µM): 0.735
relative viability (EPLC-272H; first compound 0.005 µM): 0.61
relative viability (EPLC-272H; first compound 0.01581 µM): 0.76
relative viability (EPLC-272H; first compound 0.05 µM): 0.724
relative viability (EPLC-272H; first compound 0.1581 µM): 0.694
relative viability (EPLC-272H; first compound 0.5 µM): 0.655
relative viability (NCI-H441; first compound 0.005 µM): 0.838
relative viability (NCI-H441; first compound 0.01581 µM): 0.893
relative viability (NCI-H441; first compound 0.05 µM): 1.12
relative viability (NCI-H441; first compound 0.1581 µM): 1.11
relative viability (NCI-H441; first compound 0.5 µM): 0.934
relative viability (NCI-H322M; first compound 0.005 µM): 0.843
relative viability (NCI-H322M; first compound 0.01581 µM): 1.01
relative viability (NCI-H322M; first compound 0.05 µM): 0.989
relative viability (NCI-H322M; first compound 0.1581 µM): 0.926
relative viability (NCI-H322M; first compound 0.5 µM): 0.969
relative viability (NCI-H2170; first compound 0.005 µM): 0.943
relative viability (NCI-H2170; first compound 0.01581 µM): 0.982
relative viability (NCI-H2170; first compound 0.05 µM): 0.975
relative viability (NCI-H2170; first compound 0.1581 µM): 1.02
relative viability (NCI-H2170; first compound 0.5 µM): 1.06
relative viability (201T; first compound 0.005 µM): 1.14
relative viability (201T; first compound 0.01581 µM): 1.15
relative viability (201T; first compound 0.05 µM): 1.08
relative viability (201T; first compound 0.1581 µM): 1.08
relative viability (201T; first compound 0.5 µM): 1.16
relative viability (UMC-11; first compound 0.005 µM): 1.07
relative viability (UMC-11; first compound 0.01581 µM): 1.04
relative viability (UMC-11; first compound 0.05 µM): 1.1
relative viability (UMC-11; first compound 0.5 µM): 1.01
relative viability (NCI-H647; first compound 0.005 µM): 1.05
relative viability (NCI-H647; first compound 0.01581 µM): 1.28
relative viability (NCI-H647; first compound 0.05 µM): 1.26
relative viability (NCI-H647; first compound 0.1581 µM): 1.13
relative viability (NCI-H647; first compound 0.5 µM): 1.2
relative viability (NCI-H1650; first compound 0.005 µM): 0.955
relative viability (NCI-H1650; first compound 0.01581 µM): 1.18
relative viability (NCI-H1650; first compound 0.05 µM): 1.15
relative viability (NCI-H1650; first compound 0.1581 µM): 0.935
relative viability (NCI-H1650; first compound 0.5 µM): 1.08
relative viability (NCI-H1734; first compound 0.005 µM): 0.88
relative viability (NCI-H1734; first compound 0.01581 µM): 0.888
relative viability (NCI-H1734; first compound 0.05 µM): 0.913
relative viability (NCI-H1734; first compound 0.1581 µM): 0.823
relative viability (NCI-H1734; first compound 0.5 µM): 0.863
relative viability (PC-14; first compound 0.005 µM): 0.911
relative viability (PC-14; first compound 0.01581 µM): 0.959
relative viability (PC-14; first compound 0.05 µM): 1.01
relative viability (PC-14; first compound 0.1581 µM): 1.09
relative viability (PC-14; first compound 0.5 µM): 0.904
relative viability (NCI-H2023; first compound 0.005 µM): 0.856
relative viability (NCI-H2023; first compound 0.01581 µM): 0.703
relative viability (NCI-H2023; first compound 0.05 µM): 0.989
relative viability (NCI-H2023; first compound 0.1581 µM): 0.825
relative viability (NCI-H2023; first compound 0.5 µM): 0.697
relative viability (NCI-H1793; first compound 0.005 µM): 0.559
relative viability (NCI-H1793; first compound 0.01581 µM): 0.7
relative viability (NCI-H1793; first compound 0.05 µM): 0.685
relative viability (NCI-H1793; first compound 0.1581 µM): 0.479
relative viability (NCI-H1793; first compound 0.5 µM): 0.776
relative viability (NCI-H1563; first compound 0.005 µM): 0.853
relative viability (NCI-H1563; first compound 0.01581 µM): 1.01
relative viability (NCI-H1563; first compound 0.05 µM): 0.888
relative viability (NCI-H1563; first compound 0.1581 µM): 0.847
relative viability (NCI-H1563; first compound 0.5 µM): 0.867
relative viability (COR-L23; first compound 0.005 µM): 0.929
relative viability (COR-L23; first compound 0.01581 µM): 0.943
relative viability (COR-L23; first compound 0.05 µM): 1.07
relative viability (COR-L23; first compound 0.1581 µM): 0.976
relative viability (COR-L23; first compound 0.5 µM): 0.787
relative viability (HCC-15; first compound 0.005 µM): 0.915
relative viability (HCC-15; first compound 0.01581 µM): 0.994
relative viability (HCC-15; first compound 0.05 µM): 0.993
relative viability (HCC-15; first compound 0.1581 µM): 1.03
relative viability (HCC-15; first compound 0.5 µM): 0.977
relative viability (SW 900; first compound 0.005 µM): 0.806
relative viability (SW 900; first compound 0.01581 µM): 0.884
relative viability (SW 900; first compound 0.05 µM): 0.733
relative viability (SW 900; first compound 0.1581 µM): 0.697
relative viability (SW 900; first compound 0.5 µM): 0.924
relative viability (NCI-H520; first compound 0.005 µM): 0.595
relative viability (NCI-H520; first compound 0.01581 µM): 0.702
relative viability (NCI-H520; first compound 0.05 µM): 0.74
relative viability (NCI-H520; first compound 0.1581 µM): 0.644
relative viability (NCI-H520; first compound 0.5 µM): 0.712
relative viability (LOU-NH91; first compound 0.005 µM): 0.874
relative viability (LOU-NH91; first compound 0.01581 µM): 0.974
relative viability (LOU-NH91; first compound 0.05 µM): 0.993
relative viability (LOU-NH91; first compound 0.1581 µM): 0.982
relative viability (LOU-NH91; first compound 0.5 µM): 0.962
relative viability (NCI-H2405; first compound 0.005 µM): 1.03
relative viability (NCI-H2405; first compound 0.01581 µM): 1.04
relative viability (NCI-H2405; first compound 0.05 µM): 1.08
relative viability (NCI-H2405; first compound 0.1581 µM): 1.07
relative viability (NCI-H2405; first compound 0.5 µM): 0.966
relative viability (NCI-H2347; first compound 0.005 µM): 0.905
relative viability (NCI-H2347; first compound 0.01581 µM): 1.09
relative viability (NCI-H2347; first compound 0.05 µM): 0.937
relative viability (NCI-H2347; first compound 0.5 µM): 0.845

From the supplement of paper PMC10307832
